Measurements as given in patent publication US9714222B2, “Methods and compositions for treating Ewings sarcoma family of tumors” (GEORGETOWN UNIVERSITY, priority 2012, dated 2017).

Legend:
[1] = system: TC71 (human ESFT cell line); experiment: IC50 activity in TC71 cells; assay type: cell-based
Description: Compounds provided in Table 2 were prepared using methods similar to those described herein. The structures and IC50 activities of particular compounds in PANC1 (a human pancreatic carcinoma), TC32 (human ESFT cell line), and TC71 (human ESFT cell line) cells are summarized in Table 2.
Growth inhibition of ESFT cells was measured for various concentrations of particular compounds.

[2] = biological target: T1, EWS-FLI1/RHA interaction (Homo sapiens, UniProt Q01543+Q01844); experiment: Immunoblot of co-precipitated protein lysates from treated TC32 cells; assay type: cell-based; conditions: FIG. 4
T1 construct: endogenous in cells; host or cells: TC32 cells
T1 sequence (Q01844+Q01543 with tags, fused parts or gaps): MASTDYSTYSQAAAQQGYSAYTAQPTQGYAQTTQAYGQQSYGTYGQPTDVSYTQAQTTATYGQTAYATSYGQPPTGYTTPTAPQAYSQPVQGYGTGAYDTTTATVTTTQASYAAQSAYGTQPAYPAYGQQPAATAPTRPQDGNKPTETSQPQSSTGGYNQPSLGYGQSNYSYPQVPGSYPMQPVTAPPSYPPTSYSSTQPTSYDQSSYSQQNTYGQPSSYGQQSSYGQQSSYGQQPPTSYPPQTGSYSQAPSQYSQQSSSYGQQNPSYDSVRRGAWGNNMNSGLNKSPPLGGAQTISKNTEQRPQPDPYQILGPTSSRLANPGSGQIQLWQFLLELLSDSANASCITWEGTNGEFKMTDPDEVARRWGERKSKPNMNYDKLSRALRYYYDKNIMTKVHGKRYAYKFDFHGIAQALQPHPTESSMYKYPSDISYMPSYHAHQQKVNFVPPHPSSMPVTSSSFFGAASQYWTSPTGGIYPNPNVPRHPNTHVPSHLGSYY
Source text: The disruption of the interaction of RHA with EWS-FLI1 presents an avenue for the development of a class of small molecules as potential therapeutics against the Ewing's family sarcoma tumors.

[3] = system: EWS-FLI1 and ESFT cells; conditions: cited from earlier work

| disruption of interaction of RHA with EWS-FLI1 ([2]; co-precipitation) | SMILES | potency compared with YK-4-279 [1] | effect on level of EWS-FLI1 or RHA ([2]; immunoblot) | caspase-3 activity [3] | functional inhibition of EWS-FLI1 and ESFT cells [3] |
| --- | --- | --- | --- | --- | --- |
| – | CN(C)c1ccc(C(=O)CC2(O)C(=O)Nc3c(Cl)ccc(Cl)c32)cc1 (centres unmarked) [PT-1-17] | appeared to be more potent | – | – | – |
| did disrupt their interactions | COc1ccc(C(=O)CC2(O)C(=O)Nc3c(Cl)ccc(Cl)c32)cc1 (racemic) [YK-4-279] | – | did not directly affect the level of EWS-FLI1 or RHA | increase | functionally inhibit EWS-FLI1 and ESFT cells |
